Data on one compound can be found in PMC13051451, “A Charge-Reversal Point Mutation Completely Depletes Flavin Chromophore from European Robin Cryptochrome 4a Protein” (The Journal of Physical Chemistry Letters, 2026).

Test [1] concerns the target T1, European robin Cryptochrome 4a (ErCry4a) (Erithacus rubecula, UniProt A0A2I4SZI9).
T1 construct: anion exchange purified; monomer with minor dimer
Briefly: native electrospray mass spectrometry; UV-vis absorption. It is filed as binding. The settings on record: co-purified FAD, noncovalent; 20 uM protein, 150 mM ammonium acetate, pH 8.

Test [2] addresses T2, European robin Cryptochrome 4a (ErCry4a) (Erithacus rubecula, UniProt A0A2I4SZI9, R356E).
T2 construct: anion exchange purified; monomer with minor dimer
The description is as above. It is filed as binding. The settings on record: co-purified FAD, noncovalent; 20 uM protein, 150 mM ammonium acetate, pH 8; no bound FAD detected (non-binder).

T2 sequence (A0A2I4SZI9 entry or part of it R356E): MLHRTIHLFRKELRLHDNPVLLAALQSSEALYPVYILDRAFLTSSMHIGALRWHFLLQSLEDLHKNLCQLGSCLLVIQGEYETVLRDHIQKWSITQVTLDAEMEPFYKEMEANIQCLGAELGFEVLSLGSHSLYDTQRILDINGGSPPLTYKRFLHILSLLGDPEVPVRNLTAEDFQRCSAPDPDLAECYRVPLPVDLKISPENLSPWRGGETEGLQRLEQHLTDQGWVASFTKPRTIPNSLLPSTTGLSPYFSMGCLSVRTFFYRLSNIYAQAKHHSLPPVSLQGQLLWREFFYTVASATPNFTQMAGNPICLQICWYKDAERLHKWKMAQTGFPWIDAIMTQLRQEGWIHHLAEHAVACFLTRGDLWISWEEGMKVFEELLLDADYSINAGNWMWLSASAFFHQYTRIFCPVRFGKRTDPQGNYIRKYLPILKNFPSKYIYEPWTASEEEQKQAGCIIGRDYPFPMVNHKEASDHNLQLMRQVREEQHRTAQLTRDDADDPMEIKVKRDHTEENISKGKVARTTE
T1 sequence (A0A2I4SZI9 entry or part of it): as the sequence (A0A2I4SZI9 entry or part of it R356E) above, with E356R counted along it

Regarding `Cc1cc2nc3c(=O)[nH]c(=O)nc-3n(C[C@H](O)[C@H](O)[C@H](O)COP(=O)(O)OP(=O)(O)OC[C@H]3O[C@@H](n4cnc5c(N)ncnc54)[C@H](O)[C@@H]3O)c2cc1C` [flavin adenine dinucleotide], the “% of protein with FAD bound” value in test [1] is 94%. Also, the “native electrospray mass spectrometry; UV-vis absorption” value in test [2] is “The R356E mutant is detected exclusively without FAD”.
